“Also recorded” adds a separate entry of the source.
Test system: Japanese medaka (Oryzias latipes)
Test: Fish short-term reproduction assay (FSTRA, OECD TG229), 21-day flow-through exposure
Details: for GSI Female / GSI Male / HSI Male / Length Male / Weight Male / HSI Female / Length Female / Weight Female: at completion of exposure; for Fertility rate (%) / Mortality (%) Female / Mortality (%) Male / Number of fertilized eggs / Number of total eggs / SSC Female / SSC Male / VTG (ng/mg of liver) Female / VTG (ng/mg of liver) Male: 21 days; for effect on fecundity (number of total eggs), in words: within the test concentrations
How it was run: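 Run to OECD TG229: mature NIES-R medaka pairs (3♂/3♀ per vessel, 4 vessels per treatment plus dilution water control) were dosed by continuous flow-through for 21 days. Test concentrations were spaced 2- to 5-fold. Daily spawned eggs were counted under the microscope for fertilized versus unfertilized.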

CC(=O)[C@H]1CC[C@H]2[C@@H]3CCC4=CC(=O)CC[C@]4(C)[C@H]3CC[C@]12C [P4, Progesterone]
effect on female hepatic VTG, in words (21-day exposure): no alteration | LOEC on female SSC (papillary process formation on anal fin) (21-day exposure, measured conc.): 11 µg/L | GSI Female (measured conc. 243 μg/L): 36.9% | GSI Male (measured conc. 11 μg/L): 1.20% | HSI Male (measured conc. 11 μg/L): 2.0% | Length Male (measured conc. 11 μg/L): 36.9 mm | Weight Male (measured conc. 11 μg/L): 501 mg | GSI Male (measured conc. 24 μg/L): 1.04% | HSI Male (measured conc. 24 μg/L): 1.9% | Length Male (measured conc. 24 μg/L): 36.4 mm | Weight Male (measured conc. 24 μg/L): 475 mg | GSI Male (measured conc. 64 μg/L): 1.14% | HSI Male (measured conc. 64 μg/L): 2.8% | Length Male (measured conc. 64 μg/L): 37.1 mm | Weight Male (measured conc. 64 μg/L): 465 mg | GSI Male (measured conc. 243 μg/L): 1.15% | HSI Male (measured conc. 243 μg/L): 2.1% | Length Male (measured conc. 243 μg/L): 36.9 mm | Weight Male (measured conc. 243 μg/L): 479 mg | Fertility rate (%) (measured conc. 11 μg/L): 92% | Mortality (%) Female (measured conc. 11 μg/L): 0% | Mortality (%) Male (measured conc. 11 μg/L): 0% | Number of fertilized eggs (measured conc. 11 μg/L): 17 | Number of total eggs (measured conc. 11 μg/L): 18 ± 3.8 /female/day | SSC Female (measured conc. 11 μg/L): 11 ± 8.9 | SSC Male (measured conc. 11 μg/L): 109 ± 14 | VTG (ng/mg of liver) Female (measured conc. 11 μg/L): 746 ± 419 ng/mg of liver | VTG (ng/mg of liver) Male (measured conc. 11 μg/L): 33 ± 29 ng/mg of liver | Fertility rate (%) (measured conc. 24 μg/L): 91% | Mortality (%) Female (measured conc. 24 μg/L): 8% | Mortality (%) Male (measured conc. 24 μg/L): 0% | Number of fertilized eggs (measured conc. 24 μg/L): 16 | Number of total eggs (measured conc. 24 μg/L): 17 ± 4.0 /female/day | SSC Female (measured conc. 24 μg/L): 21 ± 5.9 | SSC Male (measured conc. 24 μg/L): 108 ± 20 | VTG (ng/mg of liver) Female (measured conc. 24 μg/L): 818 ± 270 ng/mg of liver | VTG (ng/mg of liver) Male (measured conc. 24 μg/L): 29 ± 22 ng/mg of liver | Fertility rate (%) (measured conc. 64 μg/L): 87% | Mortality (%) Female (measured conc. 64 μg/L): 8% | Mortality (%) Male (measured conc. 64 μg/L): 0% | Number of fertilized eggs (measured conc. 64 μg/L): 15 | Number of total eggs (measured conc. 64 μg/L): 16 ± 6.5 /female/day | SSC Female (measured conc. 64 μg/L): 35 ± 8.9 | SSC Male (measured conc. 64 μg/L): 101 ± 13 | VTG (ng/mg of liver) Female (measured conc. 64 μg/L): 1,008 ± 445 ng/mg of liver | VTG (ng/mg of liver) Male (measured conc. 64 μg/L): 37 ± 27 ng/mg of liver | Fertility rate (%) (measured conc. 243 μg/L): 2.9% | Mortality (%) Female (measured conc. 243 μg/L): 83% | Mortality (%) Male (measured conc. 243 μg/L): 50% | Number of fertilized eggs (measured conc. 243 μg/L): 0.2 | Number of total eggs (measured conc. 243 μg/L): 1.0 ± 2.3 /female/day | SSC Female (measured conc. 243 μg/L): 32 ± 21 | SSC Male (measured conc. 243 μg/L): 100 ± 10 | VTG (ng/mg of liver) Female (measured conc. 243 μg/L): 899 ± 139 ng/mg of liver | VTG (ng/mg of liver) Male (measured conc. 243 μg/L): 37 ± 36 ng/mg of liver | effect on fecundity (number of total eggs), in words (21-day exposure): significant difference from the control

CCCCCCCCCCCCOS(=O)(=O)[O-].[Na+] [SDS, Sodium dodecyl sulfate]
effect on fertility rate, in words (21-day exposure): significant decrease; also recorded: significant reduction | effect on male hepatic VTG, in words (21-day exposure): no VTG induction | GSI Female (measured conc. 0.748 mg/L): 10.9% | HSI Female (measured conc. 0.748 mg/L): 4.8% | Length Female (measured conc. 0.748 mg/L): 35.6 mm | Weight Female (measured conc. 0.748 mg/L): 547 mg | GSI Female (measured conc. 2.46 mg/L): 10.8% | HSI Female (measured conc. 2.46 mg/L): 4.8% | Length Female (measured conc. 2.46 mg/L): 36.6 mm | Weight Female (measured conc. 2.46 mg/L): 573 mg | GSI Female (measured conc. 10.0 mg/L): 11.0% | HSI Female (measured conc. 10.0 mg/L): 4.9% | Length Female (measured conc. 10.0 mg/L): 36.1 mm | Weight Female (measured conc. 10.0 mg/L): 573 mg | GSI Male (measured conc. 0.748 mg/L): 0.88% | HSI Male (measured conc. 0.748 mg/L): 2.3% | Length Male (measured conc. 0.748 mg/L): 36.7 mm | Weight Male (measured conc. 0.748 mg/L): 544 mg | GSI Male (measured conc. 2.46 mg/L): 0.91% | HSI Male (measured conc. 2.46 mg/L): 2.0% | Length Male (measured conc. 2.46 mg/L): 36.7 mm | Weight Male (measured conc. 2.46 mg/L): 519 mg | GSI Male (measured conc. 10.0 mg/L): 1.17% | HSI Male (measured conc. 10.0 mg/L): 2.2% | Length Male (measured conc. 10.0 mg/L): 35.6 mm | Weight Male (measured conc. 10.0 mg/L): 493 mg | Fertility rate (%) (measured conc. 0.748 mg/L): 95% | Mortality (%) Female (measured conc. 0.748 mg/L): 0% | Mortality (%) Male (measured conc. 0.748 mg/L): 0% | Number of fertilized eggs (measured conc. 0.748 mg/L): 27 | Number of total eggs (measured conc. 0.748 mg/L): 29 ± 3.9 /female/day | SSC Female (measured conc. 0.748 mg/L): 0 ± 0 | SSC Male (measured conc. 0.748 mg/L): 107 ± 8.7 | VTG (ng/mg of liver) Female (measured conc. 0.748 mg/L): 3,780 ± 305 ng/mg of liver | VTG (ng/mg of liver) Male (measured conc. 0.748 mg/L): 3.0 ± 4.2 ng/mg of liver | Fertility rate (%) (measured conc. 2.46 mg/L): 93% | Mortality (%) Female (measured conc. 2.46 mg/L): 0% | Mortality (%) Male (measured conc. 2.46 mg/L): 0% | Number of fertilized eggs (measured conc. 2.46 mg/L): 27 | Number of total eggs (measured conc. 2.46 mg/L): 30 ± 2.7 /female/day | SSC Female (measured conc. 2.46 mg/L): 0 ± 0 | SSC Male (measured conc. 2.46 mg/L): 112 ± 11 | VTG (ng/mg of liver) Female (measured conc. 2.46 mg/L): 4,930 ± 189 ng/mg of liver | VTG (ng/mg of liver) Male (measured conc. 2.46 mg/L): 6.6 ± 11 ng/mg of liver | Fertility rate (%) (measured conc. 10.0 mg/L): 85% | Mortality (%) Female (measured conc. 10.0 mg/L): 0% | Mortality (%) Male (measured conc. 10.0 mg/L): 0% | Number of fertilized eggs (measured conc. 10.0 mg/L): 25 | Number of total eggs (measured conc. 10.0 mg/L): 30 ± 1.8 /female/day | SSC Female (measured conc. 10.0 mg/L): 0 ± 0 | SSC Male (measured conc. 10.0 mg/L): 110 ± 3.5 | VTG (ng/mg of liver) Female (measured conc. 10.0 mg/L): 4,520 ± 906 ng/mg of liver | VTG (ng/mg of liver) Male (measured conc. 10.0 mg/L): 1.0 ± 0.5 ng/mg of liver | effect on fecundity (number of total eggs), in words (21-day exposure): no significant effect

Reference: PMC8359193, “Summary of reference chemicals evaluated by the fish short‐term reproduction assay, OECD TG229, using Japanese Medaka, Oryzias latipes” (Journal of Applied Toxicology, 2021)
